Measurements as given in patent US10457709B2, “Antimicrobial peptides, their variants and uses” (priority 2015, dated 2019).
Values after ≈ are worked out from the molar mass of the structure shown. Square brackets hold non-standard residues; d marks the D form. Ends that are not written are not given here. Peptide text beside a SMILES is read from it.

How the values were obtained:
[1] = system: MRSA strains (S. aureus COL); assay: MIC, synergistic activity with Ertapenem (4 μg/ml); assay type: cell-based, Staphylococcus aureus; details: S. aureus COL, synergistic activity with 4 μg/ml Ertapenem
Description: (§1) Minimum inhibition concentrations (MICs) were determined against Escherichia coli (ATCC 25922), Staphylococcus aureus (ATCC 25923), Klebsiella pneumoniae (ATCC 10031) and Pseudomonas aeruginosa (ATCC 27853). Also clinical strains of E. coli, K. pneumoniae, E. cloacae, P. aeruginosa, Serratia marcescens, Proteus mirabilis, S. pneumoniae, Acinetobacter baumannii, A. johnsonii and S. aureus were used for MICs assays. Additionally, clinical strains of yeast including Candida albicans, C. glabrata, C. parapsilosis and C. quillermondiae were used. The susceptibility of these microorganisms to Chain peptides were determined using micro broth dilution assay. Colonies of the respective microorganism from Muller Hinton (MH) agar plates incubated overnight were suspended in MH broth media and final concentration of microorganism was adjusted to 5.0×10^5 cfu/ml. An aliquot of 10 μl of each Chain peptide, or gentamicin, tetracycline as reference antibiotics were added in differing concentrations along with 90 μl of bacterial suspension to 96 well polypropylene plates and incubated at 37° C. for 20 to 24 hours. Concentrations of Chain peptides and reference antibiotics ranged from 0.125 to 128 μg/ml and the MICs were recorded as the lowest concentration with no visual growth of bacteria. Similarly, antifungal MICs were tested in Potato dextrose broth.
(§2) Peptides Chain 104, Chain 105, Chain 201, Chain 308, Chain 310 were tested against antibiotic-sensitive strains of S. aureus RN4220 and methicillin resistant strains of S. aureus COL (MRSA). Chain peptides comprising of either L- or D-form amino acids were tested against these bacteria, and the D-form peptides were found have better activity compared to L-form (Table 6). Synergistic activity of chain peptides along with Ertapenem (4 μg/ml) was tested to know whether it will influence the activity against MRSA strains. […] Chain 310 has the best antibacterial activity against the MRSA strains with a MIC of 0.06 & 0.03 μg/ml along with Ertapenem (4 μg/ml) for both forms of L and D-peptides (Table 6).

S. aureus RN4220 = assay type: cell-based, Staphylococcus aureus; details: antibiotic sensitive strain S. aureus RN4220
Description: as §1, §2

S. aureus COL (MRSA) = assay type: cell-based, Staphylococcus aureus
Description: as §1, §2

[2] = system: C. quillermondiae clinical strains; assay: MIC, clinical yeast strains; assay type: cell-based, Candida quillermondiae; design: unit: μg/ml; details: C. quillermondiae clinical yeast strain 1
Description: as §1
(§3) Clinical strains of yeasts including Candida albicans, C. glabrata, C. parapsilosis and C. quillermondiae were also tested with the 12 Chain peptides. The minimum inhibitory concentration (MICs) varied between these peptides and are presented in Tables 4a, 4b, 4c and 5a, 5b, 5c. Peptides Chain 105, 201 and 308 are broad spectrum antimicrobials with MICs between 0.5-32 μg/ml against all the bacteria and yeasts tested, except Serratia marcescens and Proteus mirabilis, against which the MICs were between 64-128 μg/ml. Peptide Chain 306 has narrow spectrum activity against E. coli at 1 μg/ml and for the rest of the bacterial strains at >32 μg/ml (FIG. 10c).

[3] = system: Escherichia coli clinical strains; assay type: cell-based; details: clinical strains
Description: as §1, §3

[4] = system: Pseudomonas aeruginosa clinical strains; assay type: cell-based; details: clinical strains
Description: as §1, §3

[5] = system: Klebsiella pneumoniae clinical strains; assay type: cell-based; details: clinical strains
Description: as §1, §3

[6] = system: Streptococcus pneumoniae clinical strains; assay type: cell-based; details: clinical strains
Description: as §1, §3

[7] = system: Serratia marcescens clinical strains; assay type: cell-based; details: clinical strains
Description: as §1, §3

[8] = system: Proteus mirabilis clinical strains; assay type: cell-based; details: clinical strains
Description: as §1, §3

[9] = system: Staphylococcus aureus clinical strains; assay type: cell-based; details: clinical strains
Description: as §1, §3

[10] = system: Enterobacter cloacae clinical strains; assay type: cell-based; details: clinical strains
Description: as §1, §3

[11] = system: Candida albicans clinical strains; assay: MIC, clinical yeast strains; assay type: cell-based; design: unit: μg/ml
Description: as §1, §3

[12] = system: C. glabrata clinical strains; assay: MIC, clinical yeast strains; assay type: cell-based, Candida glabrata; design: unit: µg/ml
Description: as §1, §3

[13] = system: C. parapsilosis clinical strains; assay: MIC, clinical yeast strains; assay type: cell-based, Candida parapsilosis; design: unit: µg/ml
Description: as §1, §3

## KRKWRWLFKKL [Compound 310]
[1]
  Minimum inhibitory concentration (MIC), S. aureus COL + 4 μg/ml Ertapenem: 0.06 mg/L
S. aureus RN4220
  Minimum inhibitory concentration (MIC), S. aureus RN4220: >64 mg/L
S. aureus COL (MRSA)
  Minimum inhibitory concentration (MIC), S. aureus COL (MRSA): >64 mg/L

## CC[C@@H](C)[C@@H](NC(=O)[C@@H](Cc1c[nH]c2ccccc12)NC(=O)[C@H](N)CCCCN)C(=O)N[C@@H](C(=O)N[C@H](Cc1c[nH]c2ccccc12)C(=O)N[C@H](CCCNC(=N)N)C(=O)N[C@H](Cc1c[nH]c2ccccc12)C(=O)N[C@H](CCCNC(=N)N)C(=O)N[C@H](Cc1ccccc1)C(=O)N[C@H](CCCCN)C(=O)N[C@H](CCCNC(=N)N)C(=O)O)C(C)C [201 D] (H-[dK][dW][dI][dV][dW][dR][dW][dR][dF][dK][dR]-OH)
[1]
  Minimum inhibitory concentration (MIC), S. aureus COL + 4 μg/ml Ertapenem: 1 mg/L
S. aureus RN4220
  Minimum inhibitory concentration (MIC), S. aureus RN4220: 2 mg/L
S. aureus COL (MRSA)
  Minimum inhibitory concentration (MIC), S. aureus COL (MRSA): 2 mg/L

## RLKWFLLFRKR [Compound 308]
[1]
  Minimum inhibitory concentration (MIC), S. aureus COL + 4 μg/ml Ertapenem: 0.5 mg/L
S. aureus RN4220
  Minimum inhibitory concentration (MIC), S. aureus RN4220: >64 mg/L
S. aureus COL (MRSA)
  Minimum inhibitory concentration (MIC), S. aureus COL (MRSA): >64 mg/L

## CC(C)C[C@@H](NC(=O)[C@@H](CCCCN)NC(=O)[C@@H](CCCCN)NC(=O)[C@@H](Cc1ccccc1)NC(=O)[C@@H](CC(C)C)NC(=O)[C@@H](Cc1c[nH]c2ccccc12)NC(=O)[C@@H](CCCNC(=N)N)NC(=O)[C@@H](Cc1c[nH]c2ccccc12)NC(=O)[C@@H](CCCCN)NC(=O)[C@@H](CCCNC(=N)N)NC(=O)[C@H](N)CCCCN)C(=O)O [310 D] (H-[dK][dR][dK][dW][dR][dW][dL][dF][dK][dK][dL]-OH)
[1]
  Minimum inhibitory concentration (MIC), S. aureus COL + 4 μg/ml Ertapenem: <0.03 mg/L
S. aureus RN4220
  Minimum inhibitory concentration (MIC), S. aureus RN4220: >64 mg/L
S. aureus COL (MRSA)
  Minimum inhibitory concentration (MIC), S. aureus COL (MRSA): >64 mg/L

## CC(C)C[C@@H](NC(=O)[C@H](N)CCCNC(=N)N)C(=O)N[C@H](CCCCN)C(=O)N[C@H](Cc1c[nH]c2ccccc12)C(=O)N[C@H](Cc1ccccc1)C(=O)N[C@H](CC(C)C)C(=O)N[C@H](CC(C)C)C(=O)N[C@H](Cc1ccccc1)C(=O)N[C@H](CCCNC(=N)N)C(=O)N[C@H](CCCCN)C(=O)N[C@H](CCCNC(=N)N)C(=O)O [308 D] (H-[dR][dL][dK][dW][dF][dL][dL][dF][dR][dK][dR]-OH)
[1]
  Minimum inhibitory concentration (MIC), S. aureus COL + 4 μg/ml Ertapenem: 1 mg/L
S. aureus RN4220
  Minimum inhibitory concentration (MIC), S. aureus RN4220: 4 mg/L
S. aureus COL (MRSA)
  Minimum inhibitory concentration (MIC), S. aureus COL (MRSA): 4 mg/L

## CC(C)C[C@@H](NC(=O)[C@@H](CCCCN)NC(=O)[C@@H](Cc1c[nH]c2ccccc12)NC(=O)[C@@H](CCCCN)NC(=O)[C@@H](C)NC(=O)[C@@H](Cc1c[nH]cn1)NC(=O)[C@@H](CC(C)C)NC(=O)[C@@H](CCCNC(=N)N)NC(=O)[C@@H](Cc1c[nH]c2ccccc12)NC(=O)[C@H](N)Cc1c[nH]c2ccccc12)C(=O)N[C@H](Cc1c[nH]c2ccccc12)C(=O)O [Chain109D] (H-[dW][dW][dR][dL][dH][dA][dK][dW][dK][dL][dW]-OH)
[2]
  Minimum inhibitory concentration: 128
[3]
  MIC, Escherichia coli strain 1: 16 mg/L (≈ 9.94 µM)
  MIC, Escherichia coli strain 2: 4 mg/L (≈ 2.48 µM)
  MIC, Escherichia coli strain 3: 4 mg/L (≈ 2.48 µM)
  MIC, Escherichia coli strain 4: 4 mg/L (≈ 2.48 µM)
  MIC, Escherichia coli strain 5: 4 mg/L (≈ 2.48 µM)
[4]
  MIC, Pseudomonas aeruginosa strain 1: 16 mg/L (≈ 9.94 µM)
  MIC, Pseudomonas aeruginosa strain 2: 16 mg/L (≈ 9.94 µM)
  MIC, Pseudomonas aeruginosa strain 3: 16 mg/L (≈ 9.94 µM)
  MIC, Pseudomonas aeruginosa strain 4: 16 mg/L (≈ 9.94 µM)
  MIC, Pseudomonas aeruginosa strain 5: 8 mg/L (≈ 4.97 µM)
[5]
  MIC, Klebsiella pneumoniae strain 1: 16 mg/L (≈ 9.94 µM)
  MIC, Klebsiella pneumoniae strain 2: 8 mg/L (≈ 4.97 µM)
  MIC, Klebsiella pneumoniae strain 3: 8 mg/L (≈ 4.97 µM)
  MIC, Klebsiella pneumoniae strain 4: 16 mg/L (≈ 9.94 µM)
  MIC, Klebsiella pneumoniae strain 5: 8 mg/L (≈ 4.97 µM)
[6]
  MIC, Streptococcus pneumoniae strain 1: 16 mg/L (≈ 9.94 µM)
  MIC, Streptococcus pneumoniae strain 2: 8 mg/L (≈ 4.97 µM)
  MIC, Streptococcus pneumoniae strain 3: 2 mg/L (≈ 1.24 µM)
  MIC, Streptococcus pneumoniae strain 4: 8 mg/L (≈ 4.97 µM)
  MIC, Streptococcus pneumoniae strain 5: 8 mg/L (≈ 4.97 µM)
[7]
  MIC, Serratia marcescens strain 1: >128 mg/L
  MIC, Serratia marcescens strain 2: >128 mg/L
  MIC, Serratia marcescens strain 3: >128 mg/L
  MIC, Serratia marcescens strain 4: >128 mg/L
  MIC, Serratia marcescens strain 5: 64 mg/L (≈ 39.8 µM)
[8]
  MIC, Proteus mirabilis strain 1: >128 mg/L
  MIC, Proteus mirabilis strain 2: 64 mg/L (≈ 39.8 µM)
  MIC, Proteus mirabilis strain 3: 64 mg/L (≈ 39.8 µM)
  MIC, Proteus mirabilis strain 4: >128 mg/L
  MIC, Proteus mirabilis strain 5: >128 mg/L
[9]
  MIC, Staphylococcus aureus strain 1: 2 mg/L (≈ 1.24 µM)
  MIC, Staphylococcus aureus strain 2: 4 mg/L (≈ 2.48 µM)
  MIC, Staphylococcus aureus strain 3: 2 mg/L (≈ 1.24 µM)
  MIC, Staphylococcus aureus strain 4: 2 mg/L (≈ 1.24 µM)
  MIC, Staphylococcus aureus strain 5: 2 mg/L (≈ 1.24 µM)
[10]
  MIC, Enterobacter cloacae strain 1: 4 mg/L (≈ 2.48 µM)
  MIC, Enterobacter cloacae strain 2: 8 mg/L (≈ 4.97 µM)
  MIC, Enterobacter cloacae strain 3: 8 mg/L (≈ 4.97 µM)
  MIC, Enterobacter cloacae strain 4: 8 mg/L (≈ 4.97 µM)
  MIC, Enterobacter cloacae strain 5: 4 mg/L (≈ 2.48 µM)
[11]; Candida albicans clinical yeast strain 1
  Minimum inhibitory concentration: 128
[11]; Candida albicans clinical yeast strain 2
  Minimum inhibitory concentration: 128
[11]; Candida albicans clinical yeast strain 3
  Minimum inhibitory concentration: 128
[11]; Candida albicans clinical yeast strain 4
  Minimum inhibitory concentration: 128
[11]; Candida albicans clinical yeast strain 5
  Minimum inhibitory concentration: 128
[12]; C. glabrata clinical yeast strain 1
  Minimum inhibitory concentration: 128
[12]; C. glabrata clinical yeast strain 2
  Minimum inhibitory concentration: 128
[12]; C. glabrata clinical yeast strain 3
  Minimum inhibitory concentration: 16
[12]; C. glabrata clinical yeast strain 4
  Minimum inhibitory concentration: 64
[13]; C. parapsilosis clinical yeast strain 1
  Minimum inhibitory concentration: 128
[13]; C. parapsilosis clinical yeast strain 2
  Minimum inhibitory concentration: 128
[13]; C. parapsilosis clinical yeast strain 3
  Minimum inhibitory concentration: 128
[13]; C. parapsilosis clinical yeast strain 4
  Minimum inhibitory concentration: 8

## CC[C@@H](C)[C@@H](NC(=O)[C@@H](CCSC)NC(=O)[C@@H](C)NC(=O)[C@@H](CCCNC(=N)N)NC(=O)[C@@H](Cc1c[nH]c2ccccc12)NC(=O)[C@@H](CCCCN)NC(=O)[C@H](N)CCCNC(=N)N)C(=O)N[C@H](CCCNC(=N)N)C(=O)N[C@H](CC(C)C)C(=O)N[C@H](Cc1c[nH]cn1)C(=O)N[C@H](C)C(=O)N[C@H](CCCCN)C(=O)N[C@H](Cc1c[nH]c2ccccc12)C(=O)N[C@H](CC(C)C)C(=O)N[C@H](CCCNC(=N)N)C(=O)N[C@H](CCCCN)C(=O)O [105 D] (H-[dR][dK][dW][dR][dA][dM][dI][dR][dL][dH][dA][dK][dW][dL][dR][dK]-OH)
[1]
  Minimum inhibitory concentration (MIC), S. aureus COL + 4 μg/ml Ertapenem: 2 mg/L
S. aureus RN4220
  Minimum inhibitory concentration (MIC), S. aureus RN4220: 16 mg/L
S. aureus COL (MRSA)
  Minimum inhibitory concentration (MIC), S. aureus COL (MRSA): 8 mg/L

## RKWRAMIRLHAKRLRK [Compound 104]
[1]
  Minimum inhibitory concentration (MIC), S. aureus COL + 4 μg/ml Ertapenem: 0.25 mg/L
S. aureus RN4220
  Minimum inhibitory concentration (MIC), S. aureus RN4220: >64 mg/L
S. aureus COL (MRSA)
  Minimum inhibitory concentration (MIC), S. aureus COL (MRSA): >64 mg/L

## KWIVWRWRFKR [Compound 201]
[1]
  Minimum inhibitory concentration (MIC), S. aureus COL + 4 μg/ml Ertapenem: 0.5 mg/L
S. aureus RN4220
  Minimum inhibitory concentration (MIC), S. aureus RN4220: 64 mg/L
S. aureus COL (MRSA)
  Minimum inhibitory concentration (MIC), S. aureus COL (MRSA): 64 mg/L
